The experiment has as its target human RIP1 kinase domain (2-375) (Homo sapiens (Human), UniProt Q13546). Description: biochemical. The format is biochemical. The note with it: tight-binding apparent inhibition constant; human RIP1 kinase domain (2-375) 50 nM, 50 uM ATP, 2 hours; read-out: Ki. The procedure, abridged:
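Ki^app comes from Morrison tight-binding fits of fractional activity versus compound concentration. Activity was read as ADP production, via tracer displacement lowering fluorescence polarization (633 nm laser). Conditions: 2 h, 50 nM insect-cell-expressed enzyme, 50 uM ATP, 30 mM MgCl2, 1 mM DTT, 0.5% DMSO, pH 7.5 Hepes.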

The structures appear in SMILES notation.

Sequence of human RIP1 kinase domain (2-375) (Q13546 2-375): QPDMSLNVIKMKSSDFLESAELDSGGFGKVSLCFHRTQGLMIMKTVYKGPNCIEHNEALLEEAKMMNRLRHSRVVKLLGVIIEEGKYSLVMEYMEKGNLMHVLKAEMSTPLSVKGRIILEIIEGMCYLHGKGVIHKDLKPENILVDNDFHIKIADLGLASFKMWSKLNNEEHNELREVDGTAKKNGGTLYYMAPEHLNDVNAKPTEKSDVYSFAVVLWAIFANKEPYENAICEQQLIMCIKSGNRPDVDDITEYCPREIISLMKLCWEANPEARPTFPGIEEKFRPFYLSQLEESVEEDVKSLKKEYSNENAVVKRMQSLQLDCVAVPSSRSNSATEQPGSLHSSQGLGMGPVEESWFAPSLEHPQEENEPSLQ

For the molecule `CC(C)C1CCc2nc(C(=O)N[C@H]3CCn4nccc4N(C)C3=O)nn21` (stereo partly drawn) [Example 346, 5-isopropyl-N-[(6S)-4-methyl-5-oxo-7,8-dihydro-6H-pyrazolo[1,5-a][1,3]diazepin-6-yl]-6,7-dihydro-5H-pyrrolo[1,2-b][1,2,4]triazole-2-carboxamide], the Ki is 0.175 µM.

With `Cc1cc(F)c2c(c1)OC[C@H](NC(=O)c1nc3n(n1)[C@H](C(F)(F)F)CC3)C(=O)N2` [Example 347, (5S)—N-[(3S)-6-fluoro-8-methyl-4-oxo-3,5-dihydro-2H-1,5-benzoxazepin-3-yl]-5-(trifluoromethyl)-6,7-dihydro-5H-pyrrolo[1,2-b][1,2,4]triazole-2-carboxamide], the Ki amounted to 0.00491 µM. On to `O=C(N[C@H]1COc2cc(F)cc(F)c2NC1=O)c1nc2n(n1)[C@H](C(F)(F)F)CC2` [Example 348, (5S)—N-[(3S)-6,8-difluoro-4-oxo-3,5-dihydro-2H-1,5-benzoxazepin-3-yl]-5-(trifluoromethyl)-6,7-dihydro-5H-pyrrolo[1,2-b][1,2,4]triazole-2-carboxamide], for which the Ki is 0.0138 µM. In the case of `CCC1CCc2nc(C(=O)N[C@H]3COc4cc(C)cc(F)c4NC3=O)nn21` (stereo partly drawn) [Example 349, 5-ethyl-N-[(3S)-6-fluoro-8-methyl-4-oxo-3,5-dihydro-2H-1,5-benzoxazepin-3-yl]-6,7-dihydro-5H-pyrrolo[1,2-b][1,2,4]triazole-2-carboxamide] it was 0.0335 µM; in that of `CN1C(=O)[C@@H](NC(=O)c2nc3n(n2)[C@H](C(F)(F)F)CC3)COc2ccccc21` [Example 350, (5S)—N-[(3S)-5-methyl-4-oxo-2,3-dihydro-1,5-benzoxazepin-3-yl]-5-(trifluoromethyl)-6,7-dihydro-5H-pyrrolo[1,2-b][1,2,4]triazole-2-carboxamide], 0.0194 µM; in that of `CCC1CCc2nc(C(=O)N[C@H]3CCn4nccc4N(C)C3=O)nn21` (stereo partly drawn) [Example 351, 5-ethyl-N-[(6S)-4-methyl-5-oxo-7,8-dihydro-6H-pyrazolo[1,5-a][1,3]diazepin-6-yl]-6,7-di hydro-5H-pyrrolo[1,2-b][1,2,4]triazole-2-carboxamide], 0.394 µM. As to `CCC1CCc2nc(C(=O)N[C@H]3COc4ccccc4N(C)C3=O)nn21` (stereo partly drawn) [Example 355, 5-ethyl-N-[(3S)-5-methyl-4-oxo-2,3-dihydro-1,5-benzoxazepin-3-yl]-6,7-dihydro-5H-pyrrolo[1,2-b][1,2,4]triazole-2-carboxamide], the Ki worked out at 0.0521 µM.

Take `CN1C(=O)[C@@H](NC(=O)c2cc3c(cn2)cnn3C(F)(F)F)COc2ccccc21` [Example 356, (S)—N-(5-methyl-4-oxo-2,3,4,5-tetrahydrobenzo[b][1,4]oxazepin-3-yl)-1-(trifluoromethyl)-1H-pyrazolo[4,3-c]pyridine-6-carboxamide]: the Ki worked out at 0.00702 µM. For `O=C(N[C@H]1CCc2cc(F)cc(F)c2NC1=O)c1nc2n(n1)[C@H](C(F)(F)F)CC2` [Example 357, (5S)—N-[(3S)-7,9-difluoro-2-oxo-1,3,4,5-tetrahydro-1-benzazepin-3-yl]-5-(trifluoromethyl)-6,7-dihydro-5H-pyrrolo[1,2-b][1,2,4]triazole-2-carboxamide], the Ki worked out at 0.0461 µM. With `CN1C(=O)[C@@H](NC(=O)c2ncc3cnn(C(F)(F)F)c3n2)COc2ccccc21` [Example 360, N-[(3S)-5-methyl-4-oxo-2,3-dihydro-1,5-benzoxazepin-3-yl]-1-(trifluoromethyl)pyrazolo[3,4-d]pyrimidine-6-carboxamide] the figure was 0.0104 µM; with `CN1C(=O)[C@@H](NC(=O)c2nc3n(n2)C(c2nccn2C)CC3)COc2ccccc21` (stereo partly drawn) [Example 361, 5-(1-methylimidazol-2-yl)-N-[(3S)-5-methyl-4-oxo-2,3-dihydro-1,5-benzoxazepin-3-yl]-6,7-dihydro-5H-pyrrolo[1,2-b][1,2,4]triazole-2-carboxamide], 0.511 µM. As for `CC(=O)c1cc2n(n1)CC[C@H](NC(=O)c1ncn(Cc3ccccc3)n1)C(=O)N2C` [Example 366, (S)—N-(2-acetyl-4-methyl-5-oxo-5,6,7,8-tetrahydro-4H-pyrazolo[1,5-a][1,3]diazepin-6-yl)-1-benzyl-1H-1,2,4-triazole-3-carboxamide], the Ki was found to be 0.0173 µM. In the case of `CN1C(=O)[C@@H](NC(=O)c2nc3cccc(-c4ccccc4)n3n2)COc2ccccc21` [Example 373, (S)—N-(5-methyl-4-oxo-2,3,4,5-tetrahydrobenzo[b][1,4]oxazepin-3-yl)-5-phenyl-[1,2,4]triazolo[1,5-a]pyridine-2-carboxamide] it was 0.0043 µM. Regarding `CCc1cccc2nc(C(=O)N[C@H]3CCn4nccc4N(C)C3=O)nn12` [Example 374, (S)-5-ethyl-N-(4-methyl-5-oxo-5,6,7,8-tetrahydro-4H-pyrazolo[1,5-a][1,3]diazepin-6-yl)-[1,2,4]triazolo[1,5-a]pyridine-2-carboxamide], the Ki came to 0.269 µM. Consider `CN1C(=O)[C@@H](NC(=O)c2nc3cccc(-c4ccccc4)n3n2)CCn2nccc21` [Example 375, (S)—N-(4-methyl-5-oxo-5,6,7,8-tetrahydro-4H-pyrazolo[1,5-a][1,3]diazepin-6-yl)-5-phenyl-[1,2,4]triazolo[1,5-a]pyridine-2-carboxamide], for which the Ki is 0.028 µM. `CN1C(=O)[C@@H](NC(=O)c2nc3n(n2)C(c2ccccc2)CCC3)COc2ccccc21` (stereo partly drawn) [Example 376, N—((S)-5-methyl-4-oxo-2,3,4,5-tetrahydrobenzo[b][1,4]oxazepin-3-yl)-5-phenyl-5,6,7,8-tetrahydro-[1,2,4]triazolo[1,5-a]pyridine-2-carboxamide]: the Ki was determined as 0.0423 µM. Consider `CN1C(=O)[C@@H](NC(=O)c2nc3n(n2)C(C2CCCCC2)CCC3)COc2ccccc21` (stereo partly drawn) [Example 377, 5-cyclohexyl-N—((S)-5-methyl-4-oxo-2,3,4,5-tetrahydrobenzo[b][1,4]oxazepin-3-yl)-5,6,7,8-tetrahydro-[1,2,4]triazolo[1,5-a]pyridine-2-carboxamide], for which the Ki was found to be 0.0108 µM. With `CCc1cccc2nc(C(=O)N[C@H]3COc4ccccc4N(C)C3=O)nn12` [Example 378, (S)-5-ethyl-N-(5-methyl-4-oxo-2,3,4,5-tetrahydrobenzo[b][1,4]oxazepin-3-yl)-[1,2,4]triazolo[1,5-a]pyridine-2-carboxamide] the figure was 0.00668 µM; with `CCC1CCCc2nc(C(=O)N[C@H]3CCn4nccc4N(C)C3=O)nn21` (stereo partly drawn) [Example 379, 5-ethyl-N—((S)-4-methyl-5-oxo-5,6,7,8-tetrahydro-4H-pyrazolo[1,5-a][1,3]diazepin-6-yl)-5,6,7,8-tetrahydro-[1,2,4]triazolo[1,5-a]pyridine-2-carboxamide], 0.374 µM; with `CN1C(=O)[C@@H](NC(=O)c2nc3n(n2)C(c2ccccc2)CCC3)CCn2nccc21` (stereo partly drawn) [Example 380, N—((S)-4-methyl-5-oxo-5,6,7,8-tetrahydro-4H-pyrazolo[1,5-a][1,3]diazepin-6-yl)-5-phenyl-5,6,7,8-tetrahydro-[1,2,4]triazolo[1,5-a]pyridine-2-carboxamide], 0.154 µM. In the case of `CN1C(=O)[C@@H](NC(=O)c2nc3n(n2)C(C2CCCCC2)CCC3)CCn2nccc21` (stereo partly drawn) [Example 381, 5-cyclohexyl-N—((S)-4-methyl-5-oxo-5,6,7,8-tetrahydro-4H-pyrazolo[1,5-a][1,3]diazepin-6-yl)-5,6,7,8-tetrahydro-[1,2,4]triazolo[1,5-a]pyridine-2-carboxamide], the Ki is 0.282 µM.

Source of the values: patent US10988459B2 (priority 2015, dated 2021).
